The test system of data set [1] is DU145. The data set is described as follows: in vitro anticancer activity in combination with compound 14, modified propidium iodide assay. The data set is classed as cell-based, human. Here is the method: Standard agents were applied at 10 concentrations in sextuplicates in half-log increments. […] Growth inhibition is expressed as treated/control×100 (% T/C), and IC70 values for each combination were determined by plotting compound concentration versus cell viability.
In vitro evaluation of 14 for anticancer activity when combined with standard cytotoxic agents against the tumour cell line DU145 in a monolayer proliferation assay was carried out as described in the general methods using a modified propidium iodide assay.

Another data set has as its target Hsp90 (Homo sapiens, UniProt P07900). As to conditions: cited from earlier work.
For a further data set, the system named is SF268. In words: monolayer proliferation assay (modified propidium iodide assay), SF268. The data set is classed as cell-based, human. As to conditions: 4 days exposure, median of duplicate experiments. On the procedure:
(§1) In vitro evaluation of compounds for anticancer activity in a panel of 38 human tumour cell lines in a monolayer proliferation assay was carried out at the Oncotest Testing Facility, Institute for Experimental Oncology, Oncotest GmbH, Freiburg.
(§2) The Oncotest cell lines are established from human tumor xenografts as described by Roth et al., (1999). The origin of the donor xenografts was described by Fiebig et al., (1999). Other cell lines are either obtained from the NCl (H460, SF-268, OVCAR-3, DU145, MDA-MB-231, MDA-MB-468) or purchased from DSMZ, Braunschweig, Germany (LNCAP).
(§3) All cell lines, unless otherwise specified, were grown at 37° C. in a humidified atmosphere (95% air, 5% CO2) in a ‘ready-mix’ medium containing RPMI 1640 medium, 10% fetal calf serum, and 0.1 mg/mL gentamicin (PAA, Cölbe, Germany).
(§4) A modified propidium iodide assay was used to assess the effects of the test compound(s) on the growth of human tumour cell lines (Dengler et al., (1995)).
(§5) Briefly, cells were harvested from exponential phase cultures by trypsinization, counted and plated in 96 well flat-bottomed microtitre plates at a cell density dependent on the cell line (5-10.000 viable cells/well). After 24 h recovery to allow the cells to resume exponential growth, 0.010 mL of culture medium (6 control wells per plate) or culture medium containing a 21-deoxymacbecin analogue was added to the wells. Each concentration was plated in triplicate. […] Following 4 days of continuous exposure, cell culture medium with or without test compound was replaced by 0.2 mL of an aqueous propidium iodide (PI) solution (7 mg/L). To measure the proportion of living cells, cells were permeabilized by freezing the plates. After thawing the plates, fluorescence was measured using the Cytofluor 4000 microplate reader (excitation 530 nm, emission 620 nm), giving a direct relationship to the total number of viable cells.
(§6) Growth inhibition was expressed as treated/control×100 (% T/C). For active compounds, IC70 values were estimated by plotting compound concentration versus cell viability.
(§7) In vitro evaluation of the test compounds for anticancer activity in a panel of human tumour cell lines in a monolayer proliferation assay was carried out as described in the general methods using a modified propidium iodide assay.

Another data set relates to 251L. The data set is described as follows: monolayer proliferation assay (modified propidium iodide assay), 251L. As to conditions: 4 days exposure, median of duplicate experiments. The data set is classed as cell-based, human. Here is the method: as §1, §2, §3, §4, §5, §6, §7
For a further data set, the system named is H460. In words: monolayer proliferation assay (modified propidium iodide assay), H460. As to conditions: 4 days exposure, median of duplicate experiments. Type of data set: cell-based, human. On the procedure:
as §1, §2, §3, §4, §5, §6, §7

The subject of a further data set is MCF7. The data set is described as follows: monolayer proliferation assay (modified propidium iodide assay), MCF7. The settings on record: 4 days exposure, median of duplicate experiments. The data set is classed as cell-based, human. Here is the method:
as §1, §2, §3, §4, §5, §6, §7

A further data set deals with 394NL. The data set is described as follows: monolayer proliferation assay (modified propidium iodide assay), 394NL. Type of data set: cell-based, human. As to conditions: 4 days exposure, median of duplicate experiments. On the procedure:
as §1, §2, §3, §4, §5, §6, §7

The test system of the next data set is OVCAR3. In words: monolayer proliferation assay (modified propidium iodide assay), OVCAR3. Type of data set: cell-based, human. As to conditions: 4 days exposure, median of duplicate experiments. On the procedure: as §1, §2, §3, §4, §5, §6, §7
Data set [2] concerns DU145. In words: monolayer proliferation assay (modified propidium iodide assay), DU145. The data set is classed as cell-based, human. As to conditions: 4 days exposure, median of duplicate experiments. On the procedure:
as §1, §2, §3, §4, §5, §6, §7

For another data set, the system named is LNCAP. In words: monolayer proliferation assay (modified propidium iodide assay), LNCAP. As to conditions: 4 days exposure, median of duplicate experiments. The data set is classed as cell-based, human. On the procedure:
as §1, §2, §3, §4, §5, §6, §7

A further data set deals with 1138L. The data set is described as follows: monolayer proliferation assay (modified propidium iodide assay), 1138L. The data set is classed as cell-based, human. As to conditions: 4 days exposure, median of duplicate experiments. Here is the method:
as §1, §2, §3, §4, §5, §6, §7

Another data set in a line: Solubility assay. Type of data set: physicochemical. The settings on record: aqueous buffer, kinetic from dmso stock; 2% DMSO in PBS pH 7.3; shaken up to six hours; maximum measurable 0.5 mM. On the procedure:
Solutions (25 mM) of the test compounds were prepared by dissolving 3-5 mg aliquots in the appropriate amount of DMSO.
Aliquots (0.01 mL) were added to 0.490 mL of pH 7.3 PBS in glass vials. For each time point, 3 PBS vials were prepared in amber glass vials. For the six hour time point triplicate aliquots in DMSO were also prepared.
The resulting 0.5 mM solutions were shaken for up to six hours, with vials removed for analysis at 1, 3 and 6 hours. Samples were analysed by HPLC (0.025 mL injections).
Solubility in 2% DMSO in PBS at each time point was determined by comparing total peak areas for each chromatogram with mean total peak area for chromatograms produced from the corresponding 6 hour DMSO solutions. (Mean total peak area in DMSO solutions was assumed to be equivalent to a 0.5 mM solution).

The target in another data set is Yeast Hsp90 (Saccharomyces cerevisiae, UniProt P02829). The data set is described as follows: Hsp90 binding, isothermal titration calorimetry. As to conditions: yeast Hsp90; ITC at 30° C.; 2% DMSO; read-out: Kd values for Hsp90 binding. On the procedure: Yeast Hsp90 was dialysed against 20 mM Tris pH 7.5 containing 1 mM EDTA and 5 mM NaCl and then diluted to 0.008 mM in the same buffer, but containing 2% DMSO. The test compounds were dissolved in 100% DMSO at a concentration of 50 mM and subsequently diluted to 0.1 mM in the same buffer as for Hsp90 with 2% DMSO. Heats of interaction were measured at 30° C. on a MSC system (Microcal), with a cell volume of 1.458 mL. 10 aliquots of 0.027 mL of 0.100 mM of each test compound were injected into 0.008 mM yeast Hsp90. Heats of dilution were determined in a separate experiment by injecting the test compound into buffer containing 2% DMSO, and the corrected data fitted using a nonlinear least square curve-fitting algorithm (Microcal Origin) with three floating variables: stoichiometry, binding constant and change in enthalpy of interaction.
On the technique in general: Isothermal titration calorimetry measures the heat released or taken up as one component is titrated into another.

The mark [3] stands for this setting: concentration of 14: 0 nM (standard agent alone).

Values after ≈ are worked out from the molar mass of the structure shown. Bounds are passed on as bounds.

Yeast Hsp90, sequence (P02829 whole entry): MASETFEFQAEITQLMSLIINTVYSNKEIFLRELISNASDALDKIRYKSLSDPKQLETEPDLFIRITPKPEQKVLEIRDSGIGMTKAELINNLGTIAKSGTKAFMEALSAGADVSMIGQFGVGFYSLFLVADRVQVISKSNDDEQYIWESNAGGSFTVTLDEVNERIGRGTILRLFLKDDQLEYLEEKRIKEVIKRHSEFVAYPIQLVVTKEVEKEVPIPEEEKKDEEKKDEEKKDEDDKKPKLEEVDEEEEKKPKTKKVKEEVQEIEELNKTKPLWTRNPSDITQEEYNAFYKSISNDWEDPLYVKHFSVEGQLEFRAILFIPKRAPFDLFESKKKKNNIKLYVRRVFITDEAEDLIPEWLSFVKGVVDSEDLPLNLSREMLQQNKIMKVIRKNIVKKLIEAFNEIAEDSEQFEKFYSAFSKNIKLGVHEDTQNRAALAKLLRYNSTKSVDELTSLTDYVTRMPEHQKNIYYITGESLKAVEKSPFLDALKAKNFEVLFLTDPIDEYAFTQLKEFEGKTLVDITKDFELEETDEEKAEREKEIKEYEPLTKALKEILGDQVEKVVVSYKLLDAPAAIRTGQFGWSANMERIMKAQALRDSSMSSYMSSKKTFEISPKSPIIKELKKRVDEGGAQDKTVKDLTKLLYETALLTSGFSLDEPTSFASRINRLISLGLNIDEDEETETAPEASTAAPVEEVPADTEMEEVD

In the case of `O=NN(CCCl)C(=O)NC1CCCCC1` [CCNU, Cyclohexylchloroethylnitrosurea], the “IC70 of standard agent” value is 11.30 µg/mL with DU145 [1] (combined with 14 at 80 nM), 9.34 µg/mL with DU145 [1] (combined with 14 at 120 nM), 1.63 µg/mL with DU145 [1] (combined with 14 at 160 nM) and 19.74 µg/mL in the data set on DU145 [1] (setting [3]).
On the same counts, the results for `O=C1c2c(O)ccc(O)c2C(=O)c2c(NCCNCCO)ccc(NCCNCCO)c21` [mitoxantrone] are 1.00 µg/mL, 1.25 µg/mL, 0.11 µg/mL and 2.08 µg/mL.
Regarding `O=P1(NCCCl)OCCCN1CCCl` (stereo not shown) [ifosfamid], the “IC70 of standard agent” value stood at 80.57 µg/mL in the data set with DU145 [1] (combined with 14 at 80 nM), 52.09 µg/mL in the data set on DU145 [1] (combined with 14 at 120 nM), 17.32 µg/mL in the data set on DU145 [1] (combined with 14 at 160 nM) and 90.14 µg/mL in the data set on DU145 [1] (setting [3]).
In the case of `CO[C@H]1C[C@H](C)Cc2cc(O)cc(c2)NC(=O)/C=C/CC[C@H](OC)[C@@H](OC(N)=O)/C(C)=C/[C@H](C)[C@H]1O` [KOSN1559], on Hsp90 (relative to 17-AAG), the “binding affinity to Hsp90, greater than 17-AAG” value was 8 fold. At Hsp90 (relative to geldanamycin), the “binding affinity to Hsp90, greater than geldanamycin” value was 4 fold.
The solubility is the concentration that dissolves in the medium under given conditions. A lower solubility goes with a poorly soluble substance. By Kd is commonly meant a measure of binding affinity in units of concentration. On to `CO[C@H]1C[C@H](C)Cc2cc(O)cc(c2)NC(=O)/C(C)=C/CC[C@H](C)[C@@H](OC(N)=O)/C(C)=C/[C@H](C)[C@H]1O` [Compound 14, 7-O-carbamoylpre-macbecin], for which the “Test/Control (%) at drug concentration” value in the data set with SF268 (1 μg/mL) came to 18%; with SF268 (10 μg/mL) it was 16%; in the data set with 251L (1 μg/mL), 18%; in the data set on 251L (10 μg/mL) it was 16%; in the data set with H460 (1 μg/mL) it was 3%; in the data set with H460 (10 μg/mL) it was 4%. The “Test/Control (%) at drug concentration” value was 11% in the data set with MCF7 (1 μg/mL); 9% in the data set on MCF7 (10 μg/mL); 14% with 394NL (1 μg/mL); 13% in the data set with 394NL (10 μg/mL); 27% with OVCAR3 (1 μg/mL); 28% in the data set on OVCAR3 (10 μg/mL). The “Test/Control (%) at drug concentration” value with DU145 [2] (1 μg/mL) is on record as 8%; in the data set with DU145 [2] (10 μg/mL) it was 6%; in the data set on LNCAP (1 μg/mL), 13%; in the data set with LNCAP (10 μg/mL), 12%; with 1138L (1 μg/mL), 13%; with 1138L (10 μg/mL), 14%. The solubility in the data set “Solubility assay” was ≥ 500 µM. Moreover, on Yeast Hsp90, the Kd was found to be 3.2 nM.
Regarding `CO[C@@]12[C@H](COC(N)=O)C3=C(C(=O)C(C)=C(N)C3=O)N1C[C@@H]1N[C@@H]12` [mitomycin, mitomycin C], the “IC70 of standard agent” value was found to be 0.112 µg/mL in the data set with DU145 [1] (combined with 14 at 30 nM), 0.087 µg/mL in the data set on DU145 [1] (combined with 14 at 50 nM), 0.056 µg/mL with DU145 [1] (combined with 14 at 80 nM) and 0.165 µg/mL in the data set with DU145 [1] (setting [3]).
`CO[C@H]1C[C@H](C)[C@@H](O)c2cc(O)cc(c2)NC(=O)/C(C)=C/CC[C@H](C)[C@@H](OC(N)=O)/C(C)=C/[C@H](C)[C@H]1O` [Compound 15, 7-O-carbamoyl-15-hydroxypre-macbecin]: the “Test/Control (%) at drug concentration” value amounted to 95% with SF268 (1 μg/mL); 27% in the data set with SF268 (10 μg/mL); 86% with 251L (1 μg/mL); 29% in the data set on 251L (10 μg/mL); 87% in the data set on H460 (1 μg/mL); 23% in the data set with H460 (10 μg/mL). Besides, the “Test/Control (%) at drug concentration” value with MCF7 (1 μg/mL) is 99%; in the data set on MCF7 (10 μg/mL), 19%; in the data set with 394NL (1 μg/mL), 75%; in the data set with 394NL (10 μg/mL) it was 18%; with OVCAR3 (1 μg/mL), 100%; in the data set with OVCAR3 (10 μg/mL), 41%. Moreover, the “Test/Control (%) at drug concentration” value was 99% in the data set on DU145 [2] (1 μg/mL); 18% in the data set with DU145 [2] (10 μg/mL); 58% in the data set with LNCAP (1 μg/mL); 16% in the data set on LNCAP (10 μg/mL); 101% with 1138L (1 μg/mL); 25% in the data set on 1138L (10 μg/mL). Moreover, the solubility in the data set “Solubility assay” is ≥ 500 µM. Moreover, at Yeast Hsp90, the Kd is 6 nM.
For the molecule `CC[C@]1(O)C[C@@H]2CN(CCc3c([nH]c4ccccc34)[C@@](C(=O)OC)(c3cc4c(cc3OC)N(C)[C@H]3[C@@](O)(C(N)=O)[C@H](O)[C@]5(CC)C=CCN6CC[C@]43[C@@H]65)C2)C1` [vindesine], the “IC70 of standard agent” value in the data set on DU145 [1] (combined with 14 at 80 nM) is 0.0008 µg/mL; in the data set with DU145 [1] (combined with 14 at 120 nM), 0.0006 µg/mL; with DU145 [1] (combined with 14 at 160 nM), 0.0001 µg/mL; in the data set with DU145 [1] (setting [3]), 0.0009 µg/mL.
As to `COC1=C2C[C@@H](C)C[C@H](OC)[C@H](O)[C@@H](C)/C=C(\C)[C@H](OC(N)=O)[C@@H](OC)/C=C\C=C(/C)C(=O)NC(=CC1=O)C2=O` [Geldanamycin, geldanamycin], the solubility in “Solubility assay” came to 1.7 µM (≈ 0.953 µg/mL).
As to `CO[C@H]1[C@@H](OC)C[C@H](C)[C@@H](OC)c2cc(O)cc(c2O)NC(=O)/C(C)=C/C=C\[C@H](C)[C@@H](OC(N)=O)/C(C)=C/[C@@H]1C` [18,21-dihydromacbecin], the concentration in solution in the data set “Solubility assay” (solubility) was 136 µM (≈ 76.3 µg/mL). Compared with the last molecule, the solubility is about 80-fold higher.

Values taken from US20090209494A1, “21-DEOXYMACBECIN ANALOGUES USEFUL AS ANTITUMOR AGENTS” (priority 2005, published 2009).
